# Results published in ChEMBL document CHEMBL4043145, “Pyridine-pyrimidine amides that prevent HGF-induced epithelial scattering by two distinct mechanisms” (Bioorg Med Chem Lett, 2017).
# Tests used:
# MDCK-II = assay: Antimigratory activity against MDCK2 cells assessed as inhibition of HGF-induced cell scattering at 1 uM pretreated for 18 hrs followed by HGF addition measured after 20 to 24 hrs by crystal violet staining-based assay relative to control; format: functional; details: Canis lupus familiaris
# MCF7 [1] = assay: Antiproliferative activity against human MCF7 cells at 10 uM relative to control; format: functional, cell-based
# BT-20 = assay: Antiproliferative activity against human BT20 cells; format: functional
# [2] = Antiproliferative activity against human HER218 cells; format: functional
# Hs-578T = assay: Antiproliferative activity against human Hs 578T cells; format: functional
# MCF7 [3] = assay: Antiproliferative activity against human MCF7 cells; format: functional
# MDA-MB-231 = assay: Antiproliferative activity against human MDA-MB-231/ATCC cells; format: functional
# MDA-MB-468 = assay: Antiproliferative activity against human MDA-MB-468 cells; format: functional
# T47D = assay: Antiproliferative activity against human T47D cells; format: functional
# SF-268 = assay: Antiproliferative activity against human SF268 cells; format: functional
# SF-539 = assay: Antiproliferative activity against human SF539 cells; format: functional
# SF-295 = assay: Antiproliferative activity against human SF295 cells; format: functional
# SNB-19 = assay: Antiproliferative activity against human SNB19 cells; format: functional
# U-251 = assay: Antiproliferative activity against human U251 cells; format: functional
# COLO 205 = assay: Antiproliferative activity against human COLO205 cells; format: functional
# HCC 2998 = assay: Antiproliferative activity against human HCC2998 cells; format: functional
# HCT-116 = assay: Antiproliferative activity against human HCT116 cells; format: functional
# HCT-15 = assay: Antiproliferative activity against human HCT15 cells; format: functional
# HT-29 = assay: Antiproliferative activity against human HT-29 cells; format: functional
# KM12 = assay: Antiproliferative activity against human KM12 cells; format: functional
# SW480 = assay: Antiproliferative activity against human SW480 cells; format: functional
# SW-620 = assay: Antiproliferative activity against human SW620 cells; format: functional
# AN3-CA = assay: Antiproliferative activity against human AN3CA cells; format: functional
# HEC-1-A = assay: Antiproliferative activity against human Hec1A cells; format: functional
# MFE-280 = assay: Antiproliferative activity against human MFE280 cells; format: functional
# MFE-296 = assay: Antiproliferative activity against human MFE296 cells; format: functional
# RL95-2 = assay: Antiproliferative activity against human RL95-2 cells; format: functional
# SK-UT-1 = assay: Antiproliferative activity against human SK-UT-1 cells; format: functional
# T98G = assay: Antiproliferative activity against human T98G cells; format: functional
# U-87 MG = assay: Antiproliferative activity against human U87MG cells; format: functional, U-87MG ATCC
# CCRF-CEM = assay: Antiproliferative activity against human CCRF-CEM cells; format: functional
# HL-60(TB) = assay: Antiproliferative activity against human HL-60(TB) cells; format: functional
# K562 = assay: Antiproliferative activity against human K562 cells; format: functional
# MOLT-4 = assay: Antiproliferative activity against human MOLT4 cells; format: functional
# RPMI-8226 = assay: Antiproliferative activity against human RPMI8226 cells; format: functional
# SR = assay: Antiproliferative activity against human SR cells; format: functional
# HepG2 = assay: Antiproliferative activity against human HepG2 cells; format: functional
# A549 [4] = assay: Antiproliferative activity against human A549 cells; format: functional
# NCI-H1975 = assay: Antiproliferative activity against human NCI-H1975 cells; format: functional
# LOX IMVI = assay: Antiproliferative activity against human LOXIMVI cells; format: functional
# M14 = assay: Antiproliferative activity against human M14 cells; format: functional
# Malme-3M = assay: Antiproliferative activity against human MALME-3M cells; format: functional
# MDA-MB-435 = assay: Antiproliferative activity against human MDA-MB-435 cells; format: functional
# SK-MEL-2 = assay: Antiproliferative activity against human SK-MEL-2 cells; format: functional
# SK-MEL-5 = assay: Antiproliferative activity against human SK-MEL-5 cells; format: functional
# UACC-62 = assay: Antiproliferative activity against human UACC62 cells; format: functional
# A549 [5] = assay: Antiproliferative activity against human A549/ATCC cells; format: functional
# HOP-62 = assay: Antiproliferative activity against human HOP62cells; format: functional
# HOP-92 = assay: Antiproliferative activity against human HOP92 cells; format: functional
# NCI-H226 = assay: Antiproliferative activity against human NCI-H226 cells; format: functional
# NCI-H23 = assay: Antiproliferative activity against human NCI-H23 cells; format: functional
# NCI-H322M = assay: Antiproliferative activity against human NCI-H322M cells; format: functional
# NCI-H460 = assay: Antiproliferative activity against human NCI-H460 cells; format: functional
# NCI-H522 = assay: Antiproliferative activity against human NCI-H522 cells; format: functional
# A2780 = assay: Antiproliferative activity against human A2780 cells; format: functional, cell-based
# IGROV-1 = assay: Antiproliferative activity against human IGROV1 cells; format: functional
# NCI/ADR-RES = assay: Antiproliferative activity against human NCI/ADR-RES cells; format: functional
# OVCAR-3 = assay: Antiproliferative activity against human OVCAR3 cells; format: functional
# OVCAR-4 = assay: Antiproliferative activity against human OVCAR4 cells; format: functional
# OVCAR-5 = assay: Antiproliferative activity against human OVCAR5 cells; format: functional
# OVCAR-8 = assay: Antiproliferative activity against human OVCAR8 cells; format: functional
# SK-OV-3 = assay: Antiproliferative activity against human SKOV3 cells; format: functional
# HPAC = assay: Antiproliferative activity against HPAC; format: functional; details: Homo sapiens
# MIA PaCa-2 = assay: Antiproliferative activity against human MIAPaCa2 cells; format: functional
# PANC-1 = assay: Antiproliferative activity against human PANC1 cells; format: functional
# CWR22R = assay: Antiproliferative activity against human 22Rv1 cells; format: functional
# DU-145 = assay: Antiproliferative activity against human DU145 cells; format: functional
# LNCaP = assay: Antiproliferative activity against human LNCAP cells; format: functional
# [6] = Antiproliferative activity against human NCI-H660 cells; format: functional
# PC-3 = assay: Antiproliferative activity against human PC3 cells; format: functional
# VCaP = assay: Antiproliferative activity against human VCaP cells; format: functional
# 786-0 = assay: Antiproliferative activity against human 786-0 cells; format: functional
# A498 = assay: Antiproliferative activity against human A498 cells; format: functional
# ACHN = assay: Antiproliferative activity against human ACHN cells; format: functional
# CAKI-1 = assay: Antiproliferative activity against human Caki1 cells; format: functional
# RXF 393 = assay: Antiproliferative activity against human RXF393 cells; format: functional
# SN12C = assay: Antiproliferative activity against human SN12C cells; format: functional
# TK-10 = assay: Antiproliferative activity against human TK10 cells; format: functional
# UO-31 = assay: Antiproliferative activity against human UO31 cells; format: functional
structure (smiles),measurement,setting,value
O=C(Nc1ccc(-c2ccccc2)cn1)c1cncnc1,inhibition at 1 µM,MDCK-II,238%
same,EC50,MCF7 [1],74 nM
same,GI50,BT-20,342 nM
same,GI50,[2],72 nM
same,GI50,Hs-578T,160 nM
same,GI50,MCF7 [3],37 nM
same,GI50,MDA-MB-231,256 nM
same,GI50,MDA-MB-468,29 nM
same,GI50,T47D,> 10000 nM
same,GI50,SF-268,1020 nM
same,GI50,SF-539,110 nM
same,GI50,SF-295,86 nM
same,GI50,SNB-19,370 nM
same,GI50,U-251,113 nM
same,GI50,COLO 205,47 nM
same,GI50,HCC 2998,1010 nM
same,GI50,HCT-116,40 nM
same,GI50,HCT-15,45 nM
same,GI50,HT-29,38 nM
same,GI50,KM12,39 nM
same,GI50,SW480,46 nM
same,GI50,SW-620,43 nM
same,GI50,AN3-CA,53 nM
same,GI50,HEC-1-A,178 nM
same,GI50,MFE-280,> 10000 nM
same,GI50,MFE-296,26 nM
same,GI50,RL95-2,86 nM
same,GI50,SK-UT-1,55 nM
same,GI50,T98G,153 nM
same,GI50,U-87 MG,260 nM
same,GI50,CCRF-CEM,199 nM
same,GI50,HL-60(TB),53 nM
same,GI50,K562,46 nM
same,GI50,MOLT-4,297 nM
same,GI50,RPMI-8226,91 nM
same,GI50,SR,42 nM
same,GI50,HepG2,94 nM
same,GI50,A549 [4],204 nM
same,GI50,NCI-H1975,271 nM
same,GI50,LOX IMVI,121 nM
same,GI50,M14,44 nM
same,GI50,Malme-3M,77 nM
same,GI50,MDA-MB-435,22 nM
same,GI50,SK-MEL-2,53 nM
same,GI50,SK-MEL-5,43 nM
same,GI50,UACC-62,69 nM
same,GI50,A549 [5],61 nM
same,GI50,HOP-62,> 10000 nM
same,GI50,HOP-92,96 nM
same,GI50,NCI-H226,613 nM
same,GI50,NCI-H23,660 nM
same,GI50,NCI-H322M,512 nM
same,GI50,NCI-H460,41 nM
same,GI50,NCI-H522,34 nM
same,EC50,A2780,74 nM
same,GI50,A2780,40 nM
same,GI50,IGROV-1,869 nM
same,GI50,NCI/ADR-RES,40 nM
same,GI50,OVCAR-3,47 nM
same,GI50,OVCAR-4,> 10000 nM
same,GI50,OVCAR-5,605 nM
same,GI50,OVCAR-8,240 nM
same,GI50,SK-OV-3,315 nM
same,GI50,HPAC,154 nM
same,GI50,MIA PaCa-2,194 nM
same,GI50,PANC-1,212 nM
same,GI50,CWR22R,150 nM
same,GI50,DU-145,305 nM
same,GI50,LNCaP,361 nM
same,GI50,[6],135 nM
same,GI50,PC-3,118 nM
same,GI50,VCaP,246 nM
same,GI50,786-0,591 nM
same,GI50,A498,48 nM
same,GI50,ACHN,271 nM
same,GI50,CAKI-1,91 nM
same,GI50,RXF 393,124 nM
same,GI50,SN12C,155 nM
same,GI50,TK-10,317 nM
same,GI50,UO-31,2110 nM
